From patent US6933316B2, “Indole compounds” (National Health Research Institutes, priority 2001, dated 2005)

Assays:
KB cell line = assay: Cell growth inhibition assay on human cancer lines, parental KB; format: cell-based; details: cell type Oral, read-out: Cytotoxicity against KB
Protocol: (§1) Cell Growth Inhibition Assay: MCF-7 breast carcinoma cells were maintained in plastic dishes in DMEM medium supplemented with 10% fetal bovine serum. For in vitro treatment, tumor cells were seeded in […] of culture medium/well in 96-well plates to a final cell density of 6×10^3 cell/mL and incubated in a CO2 incubator at 37° C. for 24 h. The cells were treated with at least five different concentrations of a test indole compound, and incubated in a CO2 incubator at 37° C. for 72 h. The number of viable cells was estimated using MTS assay and absorbance was measured at 490 nm. Cytotoxicity of the test compounds was expressed in terms of IC50 values. The values presented represent averages of three independent experiments, each with duplicate samples.
(§2) Cell Growth Inhibition Assay on Multiple-drug Resistant Human Cancer Lines: Indole compounds were tested against several panels of drug-resistant cell lines. It is well known that several anti-mitotic agents, including vinca alkaloid (vincristine, vinblastine) and taxol, have been introduced in clinic to treat various human cancers. […] The mechanisms responsible for taxol resistance include overexpression of p-glycoprotein and mutation of tubulin. For comparison, […] anti-mitotic agents, i.e., Vincristine, VP-16, Cisplatin, CPT (camptothecin), and Taxol (paclitaxel) were also tested against several panels of drug-resistant cell lines. […]

HONE-1 cell line = assay: Cell growth inhibition assay on human cancer lines, parental HONE-1; format: cell-based; details: NPC, read-out: Cytotoxicity against HONE-1
Protocol: as §1, §2

[1] = system: human cancer cells, including multi-drug resistant cancer cells; details: wide variety of human cancer cells; cited from earlier work
[2] = system: colchicine binding site on tubulin; details: compared with colchicine; cited from earlier work
angiogenesis = details: cited from earlier work
[3] = cited from earlier work

Row | Structure (SMILES) | IC50 (KB cell line) [µM] | IC50 (HONE-1 cell line) [µM] | Cytotoxicity against human cancer cells [1] | Affinity for the colchicine binding site on tubulin relative to colchicine [2] | Anti-angiogenesis activity (angiogenesis) | Water-solubility [3]
1 | N.N.[Cl][Pt][Cl] [Cisplatin] | 0.003 | 3 |  |  |  | 
2 | COc1ccc(/C=C\c2cc(OC)c(OC)c(OC)c2)cc1O [CA-4, combretastatin A-4] |  |  | strong cytotoxicity | higher affinity for the colchicine binding site on tubulin than colchicine itself | anti-angiogenesis activity | low water-solubility
